PMC5933782, “Molecular structures of cdc2-like kinases in complex with a new inhibitor chemotype” (PLoS ONE, 2018)

Molecular target: CDK1/cyclin B
Experiment: radiometric protein kinase assay
Assay type: biochemical, starfish
Settings: 15 μmol/L ATP

| SMILES | IC50 [µM] |
| --- | --- |
| O=C1NCc2c(-c3cccc(F)c3)cc3c(-c4ccccc4)c[nH]c3c21 [17c, 5-(3-Fluorophenyl)-3-phenyl-6,7-dihydropyrrolo[3,4-g]indol-8(1H)-one] | > 10 |
| Cc1[nH]c2c3c(ccc2c1-c1ccccc1)CNC3=O [8k, 2-Methyl-3-phenyl-6,7-dihydropyrrolo[3,4-g]indol-8(1H)-one] | > 10 |
| O=C1NCc2c(Br)cc3c(-c4ccccc4)c[nH]c3c21 [12a, 5-Bromo-3-phenyl-6,7-dihydropyrrolo[3,4-g]indol-8(1H)-one] | 2.8 |
| CCc1[nH]c2c3c(ccc2c1-c1ccccc1)CNC3=O [8l, 2-Ethyl-3-phenyl-6,7-dihydropyrrolo[3,4-g]indol-8(1H)-one] | > 10 |

Molecular target: T1, CDK2/cyclin A (Homo sapiens, UniProt P24941)
T1 construct: made in house
Experiment: radiometric protein kinase assay
Assay type: biochemical
Settings: 15 μmol/L ATP; read-out: IC50 CDK2/cyclinA

| SMILES | IC50 [µM] |
| --- | --- |
| O=C1NCc2c(-c3cccc(F)c3)cc3c(-c4ccccc4)c[nH]c3c21 [17c, 5-(3-Fluorophenyl)-3-phenyl-6,7-dihydropyrrolo[3,4-g]indol-8(1H)-one] | > 10 |
| O=C1NCc2c(Cl)cc3c(-c4ccccc4)c[nH]c3c21 [12c, 5-Chloro-3-phenyl-6,7-dihydropyrrolo[3,4-g]indol-8(1H)-one] | > 10 |
| Cc1[nH]c2c3c(ccc2c1-c1ccccc1)CNC3=O [8k, 2-Methyl-3-phenyl-6,7-dihydropyrrolo[3,4-g]indol-8(1H)-one] | > 10 |
| O=C1NCc2c(Br)cc3c(-c4ccccc4)c[nH]c3c21 [12a, 5-Bromo-3-phenyl-6,7-dihydropyrrolo[3,4-g]indol-8(1H)-one] | > 10 |
| CCc1[nH]c2c3c(ccc2c1-c1ccccc1)CNC3=O [8l, 2-Ethyl-3-phenyl-6,7-dihydropyrrolo[3,4-g]indol-8(1H)-one] | > 10 |

Molecular target: T2, CDK5/p25 (Homo sapiens, UniProt Q00535)
T2 construct: made in house
T2 sequence (Q00535 whole entry): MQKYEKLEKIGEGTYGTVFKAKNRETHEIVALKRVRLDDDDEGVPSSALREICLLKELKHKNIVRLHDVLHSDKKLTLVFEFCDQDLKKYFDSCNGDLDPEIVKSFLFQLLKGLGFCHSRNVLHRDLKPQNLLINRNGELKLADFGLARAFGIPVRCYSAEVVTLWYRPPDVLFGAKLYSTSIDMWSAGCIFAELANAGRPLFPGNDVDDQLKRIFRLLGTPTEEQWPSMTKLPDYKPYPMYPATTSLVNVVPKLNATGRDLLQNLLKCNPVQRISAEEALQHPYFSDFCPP
T2 sequence (Q15078 99-307 partner limits assumed): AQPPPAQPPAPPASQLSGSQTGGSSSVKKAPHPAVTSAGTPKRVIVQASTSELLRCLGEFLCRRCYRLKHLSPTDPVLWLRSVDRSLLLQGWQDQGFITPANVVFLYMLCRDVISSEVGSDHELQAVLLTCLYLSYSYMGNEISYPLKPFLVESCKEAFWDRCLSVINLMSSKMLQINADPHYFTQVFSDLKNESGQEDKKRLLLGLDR
Experiment: radiometric protein kinase assay
Assay type: biochemical
Settings: 15 μmol/L ATP

| SMILES | IC50 [µM] |
| --- | --- |
| O=C1NCc2c(-c3cccc(F)c3)cc3c(-c4ccccc4)c[nH]c3c21 [17c, 5-(3-Fluorophenyl)-3-phenyl-6,7-dihydropyrrolo[3,4-g]indol-8(1H)-one] | > 10 |
| O=C1NCc2c(Cl)cc3c(-c4ccccc4)c[nH]c3c21 [12c, 5-Chloro-3-phenyl-6,7-dihydropyrrolo[3,4-g]indol-8(1H)-one] | > 10 |
| Cc1[nH]c2c3c(ccc2c1-c1ccccc1)CNC3=O [8k, 2-Methyl-3-phenyl-6,7-dihydropyrrolo[3,4-g]indol-8(1H)-one] | > 10 |
| O=C1NCc2c(Br)cc3c(-c4ccccc4)c[nH]c3c21 [12a, 5-Bromo-3-phenyl-6,7-dihydropyrrolo[3,4-g]indol-8(1H)-one] | 5.3 |
| CCc1[nH]c2c3c(ccc2c1-c1ccccc1)CNC3=O [8l, 2-Ethyl-3-phenyl-6,7-dihydropyrrolo[3,4-g]indol-8(1H)-one] | > 10 |

Molecular target: CK1δ/ε
Experiment: radiometric protein kinase assay
Assay type: biochemical, porcine
Settings: 15 μmol/L ATP; read-out: IC50 CK1

| SMILES | IC50 [µM] |
| --- | --- |
| O=C1NCc2c(-c3cccc(F)c3)cc3c(-c4ccccc4)c[nH]c3c21 [17c, 5-(3-Fluorophenyl)-3-phenyl-6,7-dihydropyrrolo[3,4-g]indol-8(1H)-one] | > 10 |
| O=C1NCc2c(Cl)cc3c(-c4ccccc4)c[nH]c3c21 [12c, 5-Chloro-3-phenyl-6,7-dihydropyrrolo[3,4-g]indol-8(1H)-one] | > 10 |
| Cc1[nH]c2c3c(ccc2c1-c1ccccc1)CNC3=O [8k, 2-Methyl-3-phenyl-6,7-dihydropyrrolo[3,4-g]indol-8(1H)-one] | > 10 |
| O=C1NCc2c(Br)cc3c(-c4ccccc4)c[nH]c3c21 [12a, 5-Bromo-3-phenyl-6,7-dihydropyrrolo[3,4-g]indol-8(1H)-one] | 1.7 |
| CCc1[nH]c2c3c(ccc2c1-c1ccccc1)CNC3=O [8l, 2-Ethyl-3-phenyl-6,7-dihydropyrrolo[3,4-g]indol-8(1H)-one] | 6.1 |

Molecular target: DYRK1A (Homo sapiens, UniProt Q13627)
Experiment: radiometric protein kinase assay
Assay type: biochemical
Settings: 15 μmol/L ATP; read-out: IC50 DYRK 1A

| SMILES | IC50 [µM] |
| --- | --- |
| O=C1NCc2c(-c3cccc(F)c3)cc3c(-c4ccccc4)c[nH]c3c21 [17c, 5-(3-Fluorophenyl)-3-phenyl-6,7-dihydropyrrolo[3,4-g]indol-8(1H)-one] | > 10 |
| O=C1NCc2c(Cl)cc3c(-c4ccccc4)c[nH]c3c21 [12c, 5-Chloro-3-phenyl-6,7-dihydropyrrolo[3,4-g]indol-8(1H)-one] | 0.32 |
| Cc1[nH]c2c3c(ccc2c1-c1ccccc1)CNC3=O [8k, 2-Methyl-3-phenyl-6,7-dihydropyrrolo[3,4-g]indol-8(1H)-one] | 1.5 |
| O=C1NCc2c(Br)cc3c(-c4ccccc4)c[nH]c3c21 [12a, 5-Bromo-3-phenyl-6,7-dihydropyrrolo[3,4-g]indol-8(1H)-one] | 0.2 |
| CCc1[nH]c2c3c(ccc2c1-c1ccccc1)CNC3=O [8l, 2-Ethyl-3-phenyl-6,7-dihydropyrrolo[3,4-g]indol-8(1H)-one] | 0.81 |

Molecular target: DYRK1B (Homo sapiens, UniProt Q9Y463)
Sequence (Q9Y463 whole entry): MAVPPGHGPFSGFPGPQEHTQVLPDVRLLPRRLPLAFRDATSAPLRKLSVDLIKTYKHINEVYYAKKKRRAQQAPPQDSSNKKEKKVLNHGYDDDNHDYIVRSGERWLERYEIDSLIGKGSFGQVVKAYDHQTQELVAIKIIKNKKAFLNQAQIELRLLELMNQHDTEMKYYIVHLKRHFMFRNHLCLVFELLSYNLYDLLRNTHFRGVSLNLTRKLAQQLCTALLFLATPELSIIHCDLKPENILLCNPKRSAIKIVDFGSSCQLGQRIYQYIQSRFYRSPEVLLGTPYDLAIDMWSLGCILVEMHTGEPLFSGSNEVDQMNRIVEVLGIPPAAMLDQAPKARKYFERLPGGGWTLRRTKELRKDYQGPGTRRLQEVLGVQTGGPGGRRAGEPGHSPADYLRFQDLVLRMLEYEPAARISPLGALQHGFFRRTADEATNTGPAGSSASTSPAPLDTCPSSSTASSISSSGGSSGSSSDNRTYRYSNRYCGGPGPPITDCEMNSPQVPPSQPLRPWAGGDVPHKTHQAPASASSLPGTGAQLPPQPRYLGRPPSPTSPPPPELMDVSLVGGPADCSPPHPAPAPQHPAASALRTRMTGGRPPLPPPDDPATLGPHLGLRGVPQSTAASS
Experiment: radiometric protein kinase assay
Assay type: biochemical
Settings: 15 μmol/L ATP; read-out: IC50 DYRK 1B

| SMILES | IC50 [µM] |
| --- | --- |
| O=C1NCc2c(-c3cccc(F)c3)cc3c(-c4ccccc4)c[nH]c3c21 [17c, 5-(3-Fluorophenyl)-3-phenyl-6,7-dihydropyrrolo[3,4-g]indol-8(1H)-one] | > 10 |
| O=C1NCc2c(Cl)cc3c(-c4ccccc4)c[nH]c3c21 [12c, 5-Chloro-3-phenyl-6,7-dihydropyrrolo[3,4-g]indol-8(1H)-one] | 1.8 |

Molecular target: T3, DYRK2 (Homo sapiens, UniProt Q92630)
T3 sequence (Q92630 1-601): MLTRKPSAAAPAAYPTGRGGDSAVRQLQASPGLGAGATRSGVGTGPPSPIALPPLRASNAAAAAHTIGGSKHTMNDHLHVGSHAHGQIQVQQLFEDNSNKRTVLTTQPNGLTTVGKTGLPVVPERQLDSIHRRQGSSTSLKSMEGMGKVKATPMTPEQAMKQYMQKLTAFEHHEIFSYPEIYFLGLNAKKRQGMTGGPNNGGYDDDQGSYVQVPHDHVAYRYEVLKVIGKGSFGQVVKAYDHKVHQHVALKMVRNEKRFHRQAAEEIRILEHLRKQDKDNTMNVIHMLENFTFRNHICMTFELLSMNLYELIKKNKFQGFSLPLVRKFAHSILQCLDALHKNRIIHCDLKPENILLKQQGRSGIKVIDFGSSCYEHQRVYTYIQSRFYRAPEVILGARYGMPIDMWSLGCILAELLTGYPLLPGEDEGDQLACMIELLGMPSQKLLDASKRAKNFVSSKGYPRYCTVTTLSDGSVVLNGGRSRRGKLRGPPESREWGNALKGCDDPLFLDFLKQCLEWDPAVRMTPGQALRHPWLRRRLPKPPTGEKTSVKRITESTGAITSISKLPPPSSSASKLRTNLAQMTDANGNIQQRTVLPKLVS
Experiment: radiometric protein kinase assay
Assay type: biochemical
Settings: 15 μmol/L ATP; read-out: IC50 DYRK 2

| SMILES | IC50 [µM] |
| --- | --- |
| O=C1NCc2c(-c3cccc(F)c3)cc3c(-c4ccccc4)c[nH]c3c21 [17c, 5-(3-Fluorophenyl)-3-phenyl-6,7-dihydropyrrolo[3,4-g]indol-8(1H)-one] | > 10 |
| O=C1NCc2c(Cl)cc3c(-c4ccccc4)c[nH]c3c21 [12c, 5-Chloro-3-phenyl-6,7-dihydropyrrolo[3,4-g]indol-8(1H)-one] | 2.3 |

Molecular target: T4, DYRK3 (Homo sapiens, UniProt O43781)
T4 sequence (O43781 1-588): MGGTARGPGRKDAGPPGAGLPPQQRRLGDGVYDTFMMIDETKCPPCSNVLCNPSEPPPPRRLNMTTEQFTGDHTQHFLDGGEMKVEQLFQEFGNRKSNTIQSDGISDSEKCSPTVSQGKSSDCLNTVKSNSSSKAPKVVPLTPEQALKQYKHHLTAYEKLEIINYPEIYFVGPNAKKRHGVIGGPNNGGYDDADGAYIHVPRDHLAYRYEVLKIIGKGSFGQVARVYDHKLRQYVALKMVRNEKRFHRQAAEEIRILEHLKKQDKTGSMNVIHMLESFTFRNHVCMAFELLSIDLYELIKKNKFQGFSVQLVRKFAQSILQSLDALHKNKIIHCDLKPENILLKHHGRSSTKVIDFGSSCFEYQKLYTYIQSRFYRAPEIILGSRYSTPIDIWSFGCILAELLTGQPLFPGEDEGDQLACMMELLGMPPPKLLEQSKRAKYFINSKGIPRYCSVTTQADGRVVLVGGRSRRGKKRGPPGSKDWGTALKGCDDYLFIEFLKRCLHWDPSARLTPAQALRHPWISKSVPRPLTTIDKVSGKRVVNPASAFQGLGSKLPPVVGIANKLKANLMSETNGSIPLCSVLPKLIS
Experiment: radiometric protein kinase assay
Assay type: biochemical
Settings: 15 μmol/L ATP; read-out: IC50 DYRK 3

| SMILES | IC50 [µM] |
| --- | --- |
| O=C1NCc2c(-c3cccc(F)c3)cc3c(-c4ccccc4)c[nH]c3c21 [17c, 5-(3-Fluorophenyl)-3-phenyl-6,7-dihydropyrrolo[3,4-g]indol-8(1H)-one] | > 10 |
| O=C1NCc2c(Cl)cc3c(-c4ccccc4)c[nH]c3c21 [12c, 5-Chloro-3-phenyl-6,7-dihydropyrrolo[3,4-g]indol-8(1H)-one] | > 10 |

Molecular target: GSK-3
Experiment: radiometric protein kinase assay
Assay type: biochemical, porcine
Settings: 15 μmol/L ATP; read-out: IC50 GSK3

| SMILES | IC50 [µM] |
| --- | --- |
| O=C1NCc2c(-c3cccc(F)c3)cc3c(-c4ccccc4)c[nH]c3c21 [17c, 5-(3-Fluorophenyl)-3-phenyl-6,7-dihydropyrrolo[3,4-g]indol-8(1H)-one] | > 10 |
| O=C1NCc2c(Cl)cc3c(-c4ccccc4)c[nH]c3c21 [12c, 5-Chloro-3-phenyl-6,7-dihydropyrrolo[3,4-g]indol-8(1H)-one] | > 10 |
| Cc1[nH]c2c3c(ccc2c1-c1ccccc1)CNC3=O [8k, 2-Methyl-3-phenyl-6,7-dihydropyrrolo[3,4-g]indol-8(1H)-one] | > 10 |
| O=C1NCc2c(Br)cc3c(-c4ccccc4)c[nH]c3c21 [12a, 5-Bromo-3-phenyl-6,7-dihydropyrrolo[3,4-g]indol-8(1H)-one] | > 10 |
| CCc1[nH]c2c3c(ccc2c1-c1ccccc1)CNC3=O [8l, 2-Ethyl-3-phenyl-6,7-dihydropyrrolo[3,4-g]indol-8(1H)-one] | > 10 |

Molecular target: CDK9/cyclin T (Homo sapiens, UniProt P50750)
Sequence (P50750 whole entry): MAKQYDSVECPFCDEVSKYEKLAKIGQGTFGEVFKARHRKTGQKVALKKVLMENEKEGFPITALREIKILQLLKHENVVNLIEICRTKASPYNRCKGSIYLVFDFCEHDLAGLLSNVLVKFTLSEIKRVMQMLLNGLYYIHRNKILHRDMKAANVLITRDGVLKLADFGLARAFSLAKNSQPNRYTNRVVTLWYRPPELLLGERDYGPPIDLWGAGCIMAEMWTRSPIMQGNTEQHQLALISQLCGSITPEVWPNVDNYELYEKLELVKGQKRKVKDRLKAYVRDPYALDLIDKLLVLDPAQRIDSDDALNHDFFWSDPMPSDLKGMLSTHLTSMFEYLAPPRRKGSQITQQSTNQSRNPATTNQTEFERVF
Sequence (O60563 whole entry partner): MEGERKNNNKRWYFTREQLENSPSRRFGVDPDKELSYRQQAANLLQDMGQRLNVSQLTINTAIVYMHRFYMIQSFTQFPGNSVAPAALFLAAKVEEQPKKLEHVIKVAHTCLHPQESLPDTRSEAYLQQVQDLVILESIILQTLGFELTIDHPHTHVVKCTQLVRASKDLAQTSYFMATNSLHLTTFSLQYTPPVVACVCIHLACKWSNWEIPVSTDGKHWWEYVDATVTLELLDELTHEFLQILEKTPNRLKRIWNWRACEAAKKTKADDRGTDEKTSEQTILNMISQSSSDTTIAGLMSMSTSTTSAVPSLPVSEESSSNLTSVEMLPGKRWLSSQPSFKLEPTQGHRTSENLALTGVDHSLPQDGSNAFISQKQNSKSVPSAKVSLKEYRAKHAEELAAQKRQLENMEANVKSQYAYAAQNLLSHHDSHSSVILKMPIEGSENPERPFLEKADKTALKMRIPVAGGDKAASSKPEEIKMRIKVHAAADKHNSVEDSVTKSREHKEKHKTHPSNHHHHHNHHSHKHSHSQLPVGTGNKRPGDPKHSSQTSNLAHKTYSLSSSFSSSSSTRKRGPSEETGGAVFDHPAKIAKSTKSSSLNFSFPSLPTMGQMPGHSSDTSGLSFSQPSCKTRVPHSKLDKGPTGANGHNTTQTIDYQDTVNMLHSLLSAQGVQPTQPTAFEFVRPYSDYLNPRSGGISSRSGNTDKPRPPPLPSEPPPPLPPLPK
Experiment: radiometric protein kinase assay
Settings: not given

| SMILES | IC50 [µM] |
| --- | --- |
| O=C1NCc2c(-c3cccc(F)c3)cc3c(-c4ccccc4)c[nH]c3c21 [17c, 5-(3-Fluorophenyl)-3-phenyl-6,7-dihydropyrrolo[3,4-g]indol-8(1H)-one] | > 10 |
| O=C1NCc2c(Cl)cc3c(-c4ccccc4)c[nH]c3c21 [12c, 5-Chloro-3-phenyl-6,7-dihydropyrrolo[3,4-g]indol-8(1H)-one] | > 10 |
| Cc1[nH]c2c3c(ccc2c1-c1ccccc1)CNC3=O [8k, 2-Methyl-3-phenyl-6,7-dihydropyrrolo[3,4-g]indol-8(1H)-one] | > 10 |
| O=C1NCc2c(Br)cc3c(-c4ccccc4)c[nH]c3c21 [12a, 5-Bromo-3-phenyl-6,7-dihydropyrrolo[3,4-g]indol-8(1H)-one] | > 10 |
| CCc1[nH]c2c3c(ccc2c1-c1ccccc1)CNC3=O [8l, 2-Ethyl-3-phenyl-6,7-dihydropyrrolo[3,4-g]indol-8(1H)-one] | > 10 |

Molecular target: CLK1 (Mus musculus, UniProt P22518)
Sequence (P22518 whole entry): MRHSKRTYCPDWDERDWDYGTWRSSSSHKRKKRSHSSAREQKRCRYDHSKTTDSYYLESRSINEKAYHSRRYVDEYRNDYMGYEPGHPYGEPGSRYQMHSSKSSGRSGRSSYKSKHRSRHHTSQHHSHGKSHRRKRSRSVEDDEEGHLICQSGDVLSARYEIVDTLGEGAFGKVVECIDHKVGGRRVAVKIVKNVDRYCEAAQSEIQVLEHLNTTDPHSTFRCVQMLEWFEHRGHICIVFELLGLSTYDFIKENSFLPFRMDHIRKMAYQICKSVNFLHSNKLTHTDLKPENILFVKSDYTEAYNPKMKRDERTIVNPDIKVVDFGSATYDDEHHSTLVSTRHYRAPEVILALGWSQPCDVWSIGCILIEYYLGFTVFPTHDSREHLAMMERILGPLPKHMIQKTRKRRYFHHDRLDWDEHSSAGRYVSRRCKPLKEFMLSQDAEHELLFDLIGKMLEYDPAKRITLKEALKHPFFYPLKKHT
Experiment: radiometric protein kinase assay
Settings: not given

| SMILES | IC50 [µM] |
| --- | --- |
| O=C1NCc2c(-c3cccc(F)c3)cc3c(-c4ccccc4)c[nH]c3c21 [17c, 5-(3-Fluorophenyl)-3-phenyl-6,7-dihydropyrrolo[3,4-g]indol-8(1H)-one] | 7.2 |
| O=C1NCc2c(Cl)cc3c(-c4ccccc4)c[nH]c3c21 [12c, 5-Chloro-3-phenyl-6,7-dihydropyrrolo[3,4-g]indol-8(1H)-one] | 0.38 |
| Cc1[nH]c2c3c(ccc2c1-c1ccccc1)CNC3=O [8k, 2-Methyl-3-phenyl-6,7-dihydropyrrolo[3,4-g]indol-8(1H)-one] | 0.093 |
| O=C1NCc2c(Br)cc3c(-c4ccccc4)c[nH]c3c21 [12a, 5-Bromo-3-phenyl-6,7-dihydropyrrolo[3,4-g]indol-8(1H)-one] | 0.043 |
| CCc1[nH]c2c3c(ccc2c1-c1ccccc1)CNC3=O [8l, 2-Ethyl-3-phenyl-6,7-dihydropyrrolo[3,4-g]indol-8(1H)-one] | 0.12 |

Molecular target: CLK2 (Mus musculus, UniProt O35491)
Sequence (O35491 whole entry): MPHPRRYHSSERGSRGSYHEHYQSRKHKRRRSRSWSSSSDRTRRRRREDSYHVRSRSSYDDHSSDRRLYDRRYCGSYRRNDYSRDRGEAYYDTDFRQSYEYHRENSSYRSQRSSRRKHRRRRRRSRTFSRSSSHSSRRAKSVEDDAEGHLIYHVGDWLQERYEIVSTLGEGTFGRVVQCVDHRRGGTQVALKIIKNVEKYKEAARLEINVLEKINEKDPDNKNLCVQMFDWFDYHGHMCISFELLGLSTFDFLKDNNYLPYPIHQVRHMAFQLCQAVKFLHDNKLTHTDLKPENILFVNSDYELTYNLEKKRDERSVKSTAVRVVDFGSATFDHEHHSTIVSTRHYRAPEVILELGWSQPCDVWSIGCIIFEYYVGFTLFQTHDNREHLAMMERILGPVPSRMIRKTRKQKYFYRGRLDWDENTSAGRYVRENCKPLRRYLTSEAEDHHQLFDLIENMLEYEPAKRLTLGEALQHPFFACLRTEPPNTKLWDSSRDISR
Experiment: radiometric protein kinase assay
Settings: not given

| SMILES | IC50 [µM] |
| --- | --- |
| O=C1NCc2c(-c3cccc(F)c3)cc3c(-c4ccccc4)c[nH]c3c21 [17c, 5-(3-Fluorophenyl)-3-phenyl-6,7-dihydropyrrolo[3,4-g]indol-8(1H)-one] | > 10 |
| O=C1NCc2c(Cl)cc3c(-c4ccccc4)c[nH]c3c21 [12c, 5-Chloro-3-phenyl-6,7-dihydropyrrolo[3,4-g]indol-8(1H)-one] | 0.033 |

Molecular target: CLK3 (Mus musculus, UniProt O35492)
Sequence (O35492 whole entry): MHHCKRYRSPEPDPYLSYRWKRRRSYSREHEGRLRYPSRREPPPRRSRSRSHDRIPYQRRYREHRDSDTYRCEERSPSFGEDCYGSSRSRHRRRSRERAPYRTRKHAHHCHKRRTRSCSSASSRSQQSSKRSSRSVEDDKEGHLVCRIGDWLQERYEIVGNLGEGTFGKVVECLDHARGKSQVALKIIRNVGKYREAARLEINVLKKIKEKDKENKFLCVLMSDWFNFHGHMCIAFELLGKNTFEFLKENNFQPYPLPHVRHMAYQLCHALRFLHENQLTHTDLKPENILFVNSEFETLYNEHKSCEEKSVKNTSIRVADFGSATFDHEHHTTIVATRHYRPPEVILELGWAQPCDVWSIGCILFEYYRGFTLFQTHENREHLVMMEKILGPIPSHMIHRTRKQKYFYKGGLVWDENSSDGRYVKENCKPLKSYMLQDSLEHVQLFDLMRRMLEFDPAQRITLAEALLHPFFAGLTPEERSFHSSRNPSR
Experiment: radiometric protein kinase assay
Settings: not given

| SMILES | IC50 [µM] |
| --- | --- |
| O=C1NCc2c(-c3cccc(F)c3)cc3c(-c4ccccc4)c[nH]c3c21 [17c, 5-(3-Fluorophenyl)-3-phenyl-6,7-dihydropyrrolo[3,4-g]indol-8(1H)-one] | > 10 |
| O=C1NCc2c(Cl)cc3c(-c4ccccc4)c[nH]c3c21 [12c, 5-Chloro-3-phenyl-6,7-dihydropyrrolo[3,4-g]indol-8(1H)-one] | 2.2 |

Molecular target: CLK4 (Mus musculus, UniProt O35493)
Sequence (O35493 whole entry): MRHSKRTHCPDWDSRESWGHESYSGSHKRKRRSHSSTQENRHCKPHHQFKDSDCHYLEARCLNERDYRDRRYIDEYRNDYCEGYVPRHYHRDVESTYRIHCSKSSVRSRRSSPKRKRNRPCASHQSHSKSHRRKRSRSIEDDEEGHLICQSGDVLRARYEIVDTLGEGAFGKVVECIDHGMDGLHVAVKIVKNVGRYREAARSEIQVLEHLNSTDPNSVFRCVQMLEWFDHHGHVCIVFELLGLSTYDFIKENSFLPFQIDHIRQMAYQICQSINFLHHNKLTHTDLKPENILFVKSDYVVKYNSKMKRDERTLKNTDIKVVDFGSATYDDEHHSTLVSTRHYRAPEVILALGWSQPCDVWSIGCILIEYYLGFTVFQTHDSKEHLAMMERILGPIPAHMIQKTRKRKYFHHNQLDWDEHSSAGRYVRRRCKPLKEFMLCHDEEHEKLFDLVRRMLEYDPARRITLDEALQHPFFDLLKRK
Experiment: radiometric protein kinase assay
Settings: not given

| SMILES | IC50 [µM] |
| --- | --- |
| O=C1NCc2c(-c3cccc(F)c3)cc3c(-c4ccccc4)c[nH]c3c21 [17c, 5-(3-Fluorophenyl)-3-phenyl-6,7-dihydropyrrolo[3,4-g]indol-8(1H)-one] | 3.2 |
| O=C1NCc2c(Cl)cc3c(-c4ccccc4)c[nH]c3c21 [12c, 5-Chloro-3-phenyl-6,7-dihydropyrrolo[3,4-g]indol-8(1H)-one] | 0.3 |
